Patent publication US9770026B2, “Substituted pyrimidine compound and uses thereof” (Shenyang Sinochem Agrochemicals R&D Co., Ltd., priority 2012, dated 2017)

Columns and labels:
wheat powdery mildew = test: protectant activity in vivo against wheat powdery mildew
corn rust = test: protectant activity in vivo against corn rust
cucumber downy mildew = test: protectant activity in vivo against cucumber downy mildew; settings: for control effect against cucumber downy mildew (%): protectant activity
[1] = test system: Green peach aphids (Myzus Persicae Sulzer); test: bioactivity test against green peach aphid, airbrush foliar spray; assay type: in vivo; settings: death rate after 48 hrs
Description: Compounds were dissolved in mixed solvent (acetone:methanol=1:1), and diluted to required concentration with water containing 0.1% of tween 80.
Diamond back moth, armyworm, peach aphid and carmine spider mite were used as targets and the method of spraying by airbrush was used for determination of insecticidal biassays.
Method: Filter papers were put in culture dishes (Diameter=6 cm), and water was dripped on filter papers for preserving moisture. Green peach aphids (Myzus Persicae Sulzer) were maintained on cabbage. Leaves (Diameter=3 cm) of approximately 15-30 aphids were put in the culture dishes. Bioactivity tests were used the method of Airbrush Foliar Spray, pressure=10 psi (0.7 kg/cm2), spray volume=0.5 mL. The studies were conducted at […] 25±1 C in incubator cabinets with 60±5% RH. Survey the survival aphids after 48 hrs and calculate the death rates.

| SMILES | protectant activity against wheat powdery mildew in vivo (wheat powdery mildew; 400 ppm) | protectant activity against cucumber downy mildew in vivo (cucumber downy mildew; 400 ppm) | protectant activity against corn rust in vivo (corn rust; 400 ppm) | control (test results against green peach aphid) ([1]; 100 ppm) | control (test results against green peach aphid) ([1]; 600 ppm) | control effect against cucumber downy mildew (%) (cucumber downy mildew; 25 mg/L) | control effect against cucumber downy mildew (%) (cucumber downy mildew; 50 mg/L) | control effect against cucumber downy mildew (%) (cucumber downy mildew; 100 mg/L) | control effect against cucumber downy mildew (%) (cucumber downy mildew; 400 mg/L) | protectant activity against cucumber downy mildew in vivo (cucumber downy mildew; 25 ppm) | protectant activity against cucumber downy mildew in vivo (cucumber downy mildew; 50 ppm) | protectant activity against cucumber downy mildew in vivo (cucumber downy mildew; 100 ppm) | also measured |
| --- | --- | --- | --- | --- | --- | --- | --- | --- | --- | --- | --- | --- | --- |
| FC(F)(F)c1ccc(Oc2ccc(CNc3ncnc4ccccc34)cc2)nc1 [CK31, reference compound] | – | – | – | – | – | – | – | – | – | – | – | – | pest or weed control at 6.25 µg/mL (wheat powdery mildew; Triticum aestivum, 168 h, read-out: control effect against wheat powdery mildew (%), 6.25 mg/L, protectant activity): 0%; pest or weed control at 25 µg/mL (wheat powdery mildew; Triticum aestivum, 168 h, read-out: control effect against wheat powdery mildew (%), 25 mg/L, protectant activity): 0%; pest or weed control at 100 µg/mL (wheat powdery mildew; Triticum aestivum, 168 h, read-out: control effect against wheat powdery mildew (%), 100 mg/L, protectant activity): 0%; pest or weed control at 400 µg/mL (wheat powdery mildew; Triticum aestivum, 168 h, read-out: control effect against wheat powdery mildew (%), 400 mg/L, protectant activity): 0%; pest or weed control at 6.25 µg/mL (corn rust; Zea mays, 168 h, read-out: control effect against corn rust (%), 6.25 mg/L, protectant activity): 0%; pest or weed control at 25 µg/mL (corn rust; Zea mays, 168 h, read-out: control effect against corn rust (%), 25 mg/L, protectant activity): 0%; pest or weed control at 100 µg/mL (corn rust; Zea mays, 168 h, read-out: control effect against corn rust (%), 100 mg/L, protectant activity): 0%; pest or weed control at 400 µg/mL (corn rust; Zea mays, 168 h, read-out: control effect against corn rust (%), 400 mg/L, protectant activity): 0% |
| CCOC(=O)c1ccc(Oc2ccc(CCNc3ncnc(C)c3Cl)cc2)nc1 [Compound I-35] | 100% | 100% | 100% | 100% | 100% | – | – | – | – | – | – | – | protectant activity against corn rust in vivo (corn rust; 100 ppm): 100%; control (test results against green peach aphid) ([1]; 10 ppm): 100% |
| Cc1ncnc(NCCc2ccc(Oc3ncc(C(F)(F)F)cc3Cl)c(Cl)c2)c1Cl [Compound I-1414] | 100% | – | – | 100% | 100% | – | – | – | – | – | – | – | protectant activity against wheat powdery mildew in vivo (wheat powdery mildew; 100 ppm): 100% |
| Cc1ncnc(NCCc2ccc(Oc3ncc(C(F)(F)F)cc3Cl)cc2)c1Br [Compound I-1878] | – | 100% | 100% | 100% | 100% | – | – | – | – | – | – | – | control (test results against green peach aphid) ([1]; 10 ppm): 100% |
| FC(F)c1ncnc(NCCc2ccc(Oc3ncc(Cl)cc3Cl)cc2)c1Cl [Compound I-2555] | 100% | 100% | 100% | 100% | 100% | – | – | – | – | – | – | – | protectant activity against wheat powdery mildew in vivo (wheat powdery mildew; 25 ppm): 100%; protectant activity against wheat powdery mildew in vivo (wheat powdery mildew; 100 ppm): 100% |
| CCc1nc(C)nc(NCCc2ccc(Oc3nc(Cl)c(Cl)cc3Cl)cc2)c1Cl [Compound I-6790] | – | – | – | – | – | – | – | – | – | – | – | – | pest or weed control at 400 ppm (wheat powdery mildew; Triticum aestivum, 168 h, read-out: protectant activity against wheat powdery mildew in vivo, 400 ppm): 100%; pest or weed control at 25 ppm (cucumber downy mildew; Cucumis sativus, 168 h, read-out: protectant activity against cucumber downy mildew in vivo, 25 ppm): 80 to 99%; pest or weed control at 50 ppm (cucumber downy mildew; Cucumis sativus, 168 h, read-out: protectant activity against cucumber downy mildew in vivo, 50 ppm): 80 to 99%; pest or weed control at 100 ppm (cucumber downy mildew; Cucumis sativus, 168 h, read-out: protectant activity against cucumber downy mildew in vivo, 100 ppm): 80 to 99%; pest or weed control at 400 ppm (cucumber downy mildew; Cucumis sativus, 168 h, read-out: protectant activity against cucumber downy mildew in vivo, 400 ppm): 100%; pest or weed control at 400 ppm (corn rust; Zea mays, 168 h, read-out: protectant activity against corn rust in vivo, 400 ppm): 100%; pest or weed control at 600 ppm ([1]; Myzus persicae, foliar, 48 h, 600 ppm): 100% |
| Cc1ncnc(NCCc2ccc(Oc3cc(Cl)cc(Cl)c3)cc2)c1Cl [II-25] | 100% | 100% | – | – | 100% | – | – | – | – | – | – | – | – |
| Cc1ncnc(NCCc2ccc(Oc3c([N+](=O)[O-])cc(Cl)cc3C(F)(F)F)cc2)c1Cl [II-202] | – | 100% | – | – | – | – | – | – | – | – | – | – | – |
| Cc1ncnc(NCCc2ccc(Oc3ccc([N+](=O)[O-])c(Cl)c3C)cc2)c1Cl [II-236] | – | 100% | – | – | 100% | 100% | 100% | 100% | 100% | 100% | 100% | 100% | – |
| O=[N+]([O-])c1cc(Cl)ccc1Oc1ccc(CCNc2ncnc(C(F)F)c2Cl)cc1 [II-9058] | 100% | 100% | – | – | – | – | – | – | – | – | – | – | – |
| Cc1ncnc(NCCc2ccc(Oc3ccc(Cl)cc3Cl)nc2)c1Cl [III-82] | 100% | 100% | 100% | – | 100% | 100% | 100% | 100% | 100% | 100% | 100% | 100% | control effect against cucumber downy mildew (%) (cucumber downy mildew; 12.5 mg/L): 98% |
| Cc1ncnc(NCCc2ccc(Oc3cc(Cl)ccc3Cl)nc2)c1Cl [III-83] | 100% | – | 100% | – | 100% | – | – | – | – | – | – | – | – |
| Cc1ncnc(NCCc2ccc(Oc3ccc(C(F)(F)F)cc3Cl)nc2)c1Cl [III-121] | 100% | 100% | – | 100% | 100% | 100% | 100% | 100% | 100% | 100% | 100% | 100% | protectant activity against wheat powdery mildew in vivo (wheat powdery mildew; 100 ppm): 100% |
| CCc1ncnc(NCCc2ccc(Oc3cccc(Cl)c3)nc2)c1Cl [III-186] | 100% | – | 100% | 100% | 100% | – | – | – | – | – | – | – | – |
| CCc1ncnc(NCCc2ccc(Oc3ccc(Cl)cc3Cl)nc2)c1Cl [III-262] | 100% | 100% | 100% | 100% | 100% | 100% | 100% | 100% | 100% | 100% | 100% | 100% | control effect against corn rust (%) (corn rust; 0.4 mg/L, protectant activity): 60%; control effect against corn rust (%) (corn rust; 1.6 mg/L, protectant activity): 90%; control effect against corn rust (%) (corn rust; 6.25 mg/L, protectant activity): 90%; control effect against corn rust (%) (corn rust; 25 mg/L, protectant activity): 100%; control effect against corn rust (%) (corn rust; 100 mg/L, protectant activity): 100%; control effect against corn rust (%) (corn rust; 400 mg/L, protectant activity): 100%; protectant activity against corn rust in vivo (corn rust; 25 ppm): 100%; protectant activity against corn rust in vivo (corn rust; 100 ppm): 100% |
| CCc1ncnc(NCCc2ccc(Oc3cc(Cl)ccc3Cl)nc2)c1Cl [III-263] | 100% | 100% | – | – | 100% | 100% | 100% | 100% | 100% | 100% | 100% | 100% | control effect against cucumber downy mildew (%) (cucumber downy mildew; 6.25 mg/L): 70%; control effect against cucumber downy mildew (%) (cucumber downy mildew; 12.5 mg/L): 98% |
| CCc1ncnc(NCCc2ccc(Oc3ccc(Cl)cc3C)nc2)c1Cl [III-290] | – | 100% | – | – | – | – | – | – | – | – | – | – | – |
| Cc1nc(Cl)c(Cl)c(NCCc2ccc(Oc3ccccc3)nc2)n1 [III-2521] | – | 100% | 100% | – | – | 100% | 100% | 100% | 100% | 100% | 100% | 100% | control effect against cucumber downy mildew (%) (cucumber downy mildew; 12.5 mg/L): 100%; protectant activity against cucumber downy mildew in vivo (cucumber downy mildew; 12.5 ppm): 100% |
| Cc1nc(Cl)c(Cl)c(NCCc2ccc(Oc3cccc(Cl)c3)nc2)n1 [III-2526] | – | 100% | 100% | – | – | – | – | – | – | 100% | 100% | 100% | – |
| Cc1nc(Cl)c(Cl)c(NCCc2ccc(Oc3cccc(C(F)(F)F)c3)nc2)n1 [III-2541] | 100% | 100% | – | – | – | – | – | – | – | – | 100% | 100% | – |
